Source: article PMC8421423, “Cellular model system to dissect the isoform-selectivity of Akt inhibitors” (Nature Communications, 2021)
Where “and” joins values, the source holds several entries; their conditions need not be identical. Equal entries are not always repeated. Where two headings read alike, the source gives them in different places.

Columns and labels:
Akt3 = Akt3 (Homo sapiens, UniProt Q9Y243); assay: STK HTRF KinEASE activity-based assay (IC50)
Ba/F3^myr-Akt2 cells = assay: CellTiter-Glo cell viability assay
Ba/F3^myr-Akt1 cells = assay: CellTiter-Glo cell viability assay; conditions: for Log ratio EC50 [Akt] / EC50 [Akt], Akt1 / Akt2: cell viability assay Ba/F3 myr-Akt cells, log units
Akt1 = Akt1 (Homo sapiens, UniProt P31749); assay: STK HTRF KinEASE activity-based assay (IC50); conditions: for Log ratio IC50 [Akt] / IC50 [Akt], Akt1 / Akt2: biochemical activity based assay, log units
Chain of Akt1 (P31749 whole entry): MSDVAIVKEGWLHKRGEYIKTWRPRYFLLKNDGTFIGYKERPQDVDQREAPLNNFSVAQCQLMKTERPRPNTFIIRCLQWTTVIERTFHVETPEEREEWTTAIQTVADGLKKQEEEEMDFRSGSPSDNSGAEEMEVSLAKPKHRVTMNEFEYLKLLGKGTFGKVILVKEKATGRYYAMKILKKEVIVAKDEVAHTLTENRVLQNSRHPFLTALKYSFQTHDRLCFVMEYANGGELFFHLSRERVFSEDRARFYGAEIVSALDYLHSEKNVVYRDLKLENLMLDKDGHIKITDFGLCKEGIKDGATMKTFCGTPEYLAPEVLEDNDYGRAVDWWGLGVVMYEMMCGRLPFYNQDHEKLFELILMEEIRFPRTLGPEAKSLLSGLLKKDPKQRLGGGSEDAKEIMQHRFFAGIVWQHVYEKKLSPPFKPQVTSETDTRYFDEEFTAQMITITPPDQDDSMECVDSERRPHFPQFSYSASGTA
Description: The biochemical half maximal inhibitory concentrations (IC50) were determined with the STK HTRF KinEASE assay (Cisbio) according to the manufactor’s instructions. Briefly: 5 µL Kinase solution and 2.5 µL inhibitor solution (8% DMSO in HTRF buffer) were incubated for 1 h before the reaction was started by addition of 2.5 µL starting solution containing ATP and substrate peptide. […] After reaction completion (Akt1: 60 min, Akt2: 20 min, Akt3: 15 min), 10 µL of stop solution were added. […] The quotient of both intensities were recorded at eight different inhibitor concentrations and data fit to a Hill 4-parameter equation with Quattro software suite (Quattro Research GmbH, Martinsried, Germany). Each reaction was performed in duplicates and at least three independent determinations of each IC50 were made.

Ba/F3^myr-Akt3 cells = assay: CellTiter-Glo cell viability assay; conditions: for Log ratio EC50 [Akt] / EC50 [Akt], Akt3 / Akt2: cell viability assay Ba/F3 myr-Akt cells, log units
Description: On day 0, cells were plated into white 384-well cell culture plates (Greiner Bio-One) using a Multidrop reagent dispenser (Thermo Fisher Scientific) at cell numbers that ensure linear and optimal luminescent signal intensity (Ba/F3myr-Akt1: 600 cells/well, Ba/F3myr-Akt2: 800 cells/well, Ba/F3myr-Akt3: 800 cells/well). […] Cell viability was analyzed on day 4 using the CellTiter-Glo Assay (Promega) as per the manufacturer’s instructions. […] All experimental points were measured in duplicates for each plate and were replicated in at least three plates.

Akt2 = Akt2 (Homo sapiens, UniProt P31751); assay: STK HTRF KinEASE activity-based assay (IC50)
Chain of Akt2 (P31751 whole entry): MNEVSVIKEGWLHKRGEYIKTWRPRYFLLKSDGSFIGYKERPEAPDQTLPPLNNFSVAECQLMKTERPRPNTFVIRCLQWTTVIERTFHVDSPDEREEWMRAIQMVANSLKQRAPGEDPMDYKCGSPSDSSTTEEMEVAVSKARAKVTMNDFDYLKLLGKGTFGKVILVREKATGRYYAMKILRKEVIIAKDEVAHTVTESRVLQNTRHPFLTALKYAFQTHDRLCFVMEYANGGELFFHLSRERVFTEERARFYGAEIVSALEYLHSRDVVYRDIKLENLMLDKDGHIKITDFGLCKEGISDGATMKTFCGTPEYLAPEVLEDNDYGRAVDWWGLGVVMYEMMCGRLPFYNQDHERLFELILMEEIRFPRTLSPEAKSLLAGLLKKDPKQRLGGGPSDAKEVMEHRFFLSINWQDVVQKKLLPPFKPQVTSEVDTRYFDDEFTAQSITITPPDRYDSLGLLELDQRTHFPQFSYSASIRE

parental Ba/F3 cells = assay: CellTiter-Glo cell viability assay; type: cell-based, murine
[1] = HTRF IC50 Akt3, Mean, mean of replicates
[2] = HTRF IC50 Akt3, individual determinations, single replicates
[3] = IC50 Akt3, HTRF, ATP at KM, 1 h preincubation
[4] = Mus musculus, read-out: CTG BaF3myr-Akt2, Mean, mean of replicates
[5] = Mus musculus, read-out: CTG BaF3myr-Akt2, individual determinations, single replicates
[6] = read-out: CTG BaF3myr-Akt2, individual determinations, single replicates
[7] = Mus musculus, read-out: CTG BaF3myr-Akt1, Mean, mean of replicates
[8] = Mus musculus, read-out: CTG BaF3myr-Akt1, individual determinations, single replicates
[9] = Mus musculus, read-out: EC50 BaF3myr-Akt1, CTG
[10] = read-out: CTG BaF3myr-Akt1, individual determinations, single replicates
[11] = HTRF IC50 Akt1, Mean, mean of replicates
[12] = HTRF IC50 Akt1, individual determinations, single replicates
[13] = IC50 Akt1, HTRF, ATP at KM, 1 h preincubation
[14] = Mus musculus, read-out: CTG BaF3myr-Akt3, Mean, mean of replicates
[15] = Mus musculus, read-out: CTG BaF3myr-Akt3, individual determinations, single replicates
[16] = read-out: CTG BaF3myr-Akt3, individual determinations, single replicates
[17] = HTRF IC50 Akt2, Mean, mean of replicates
[18] = HTRF IC50 Akt2, individual determinations, single replicates
[19] = IC50 Akt2, HTRF, ATP at KM, 1 h preincubation
[20] = Mus musculus, BaF3, parental cells, single replicates, read-out: CTG BaF3, individual determinations
[21] = parental cells, single replicates, read-out: CTG BaF3, individual determinations
[22] = Mus musculus, BaF3, parental cells, mean of replicates, read-out: CTG BaF3, Mean

Chain of Akt3 (Q9Y243 whole entry): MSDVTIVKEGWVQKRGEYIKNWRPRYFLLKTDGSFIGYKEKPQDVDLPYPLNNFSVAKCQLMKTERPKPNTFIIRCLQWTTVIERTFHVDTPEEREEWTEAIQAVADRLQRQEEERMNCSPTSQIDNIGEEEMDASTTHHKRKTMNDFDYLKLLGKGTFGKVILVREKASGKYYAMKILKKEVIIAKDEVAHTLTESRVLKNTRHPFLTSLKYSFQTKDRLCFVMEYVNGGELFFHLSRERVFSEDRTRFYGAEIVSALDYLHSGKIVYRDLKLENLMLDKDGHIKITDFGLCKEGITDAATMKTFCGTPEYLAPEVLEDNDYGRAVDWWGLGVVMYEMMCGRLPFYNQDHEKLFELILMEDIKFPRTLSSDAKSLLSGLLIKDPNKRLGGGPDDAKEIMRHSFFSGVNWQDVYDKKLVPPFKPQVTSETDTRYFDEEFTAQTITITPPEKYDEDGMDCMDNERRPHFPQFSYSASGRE

SMILES | EC50 (Ba/F3^myr-Akt2 cells; [4]) [µM] | EC50 (Ba/F3^myr-Akt2 cells; [6]) | EC50 (Ba/F3^myr-Akt1 cells; [7]) [µM] | EC50 (Ba/F3^myr-Akt1 cells; [10]) | EC50 (Ba/F3^myr-Akt3 cells; [14]) [µM] | EC50 (Ba/F3^myr-Akt3 cells; [16]) | IC50 (Akt3; [1]) [µM] | IC50 (Akt3; [2]) | IC50 (Akt3; [3]) [µM] | EC50 (Ba/F3^myr-Akt1 cells; [8]) [µM] | Log ratio EC50 [Akt] / EC50 [Akt], Akt1 / Akt2 (Ba/F3^myr-Akt1 cells) | IC50 (Akt1; [11]) [µM] | IC50 (Akt1; [12]) | IC50 (Akt1; [13]) [µM] | Log ratio IC50 [Akt] / IC50 [Akt], Akt1 / Akt2 (Akt1) | EC50 (Ba/F3^myr-Akt3 cells; [15]) [µM] | Log ratio EC50 [Akt] / EC50 [Akt], Akt3 / Akt2 (Ba/F3^myr-Akt3 cells) | IC50 (Akt2; [18]) | EC50 (parental Ba/F3 cells; [20]) [µM] | EC50 (parental Ba/F3 cells; [21]) | further results
C=CC(=O)Nc1ccc2[nH]c(=O)n(C3CCN(Cc4ccc(-c5ncc(CNCC(C)C)cc5-c5ccccc5)cc4)CC3)c2c1 [compound 9] | 13.6 | 12.5 µM | > 30 | > 30 µM | 14.1 | 18.6 µM and 9.33 µM and 12.7 µM | 8.37 | 6.9 µM and 10.4 µM and 7.86 µM | 8.37 ± 1.78 | > 30 | 0.34 | 5.93 | 6.84 µM and 5.56 µM and 5.38 µM | 5.93 ± 0.793 | 0.15 | 15.9 | -0.02 | 4.62 µM and 3.65 µM and 4.37 µM | > 30 | 28.5 µM and > 30 µM | EC50 (Ba/F3^myr-Akt2 cells; [5]): 17.2 µM; EC50 (Ba/F3^myr-Akt1 cells; [9]): > 30 µM; IC50 (Akt2; [17]): 4.21 µM; IC50 (Akt2; [19]): 4.21 ± 0.412 µM
C=CC(=O)Nc1ccc2[nH]c(=O)n(C3CCN(Cc4ccc(-c5ncc(C)cc5-c5ccccc5)cc4)CC3)c2c1 [compound 2] | 2.79 | 3.99 µM and 1.13 µM and 1.58 µM | 3.1 | 3.52 µM and 2.96 µM | > 30 | > 30 µM | 7.51 | 7.41 µM and 4.78 µM and 10.2 µM and 5.33 µM and 9.79 µM | 7.51 ± 1.82 | 2.81 | 0.05 | 0.0218 | 0.0221 µM and 0.0229 µM and 0.0205 µM | 0.022 ± 0.002 | -0.83 | > 30 | -0.46 | 0.156 µM and 0.149 µM and 0.144 µM | 13.2 | 10.3 µM and 10.9 µM | EC50 (Ba/F3^myr-Akt3 cells; Mus musculus, read-out: EC50 BaF3myr-Akt3, CTG): > 30 µM; IC50 (Akt2; [17]): 0.15 µM; IC50 (Akt2; [19]): 0.15 ± 0.005 µM; EC50 (parental Ba/F3 cells; [22]): 11.5 µM

Further lines, with some results ahead:

EC50 (Ba/F3^myr-Akt2 cells; [4]) [µM] | EC50 (Ba/F3^myr-Akt2 cells; [6]) | EC50 (Ba/F3^myr-Akt1 cells; [7]) [µM] | EC50 (Ba/F3^myr-Akt1 cells; [10]) | EC50 (Ba/F3^myr-Akt3 cells; [14]) [µM] | EC50 (Ba/F3^myr-Akt3 cells; [16]) | SMILES | IC50 (Akt3; [1]) [µM] | IC50 (Akt3; [2]) | IC50 (Akt3; [3]) [µM] | EC50 (Ba/F3^myr-Akt1 cells; [8]) [µM] | Log ratio EC50 [Akt] / EC50 [Akt], Akt1 / Akt2 (Ba/F3^myr-Akt1 cells) | IC50 (Akt1; [11]) [µM] | IC50 (Akt1; [12]) | IC50 (Akt1; [13]) [µM] | Log ratio IC50 [Akt] / IC50 [Akt], Akt1 / Akt2 (Akt1) | EC50 (Ba/F3^myr-Akt3 cells; [15]) [µM] | Log ratio EC50 [Akt] / EC50 [Akt], Akt3 / Akt2 (Ba/F3^myr-Akt3 cells) | IC50 (Akt2; [18]) | EC50 (parental Ba/F3 cells; [20]) [µM] | EC50 (parental Ba/F3 cells; [21]) | further results
2.76 | 4.03 µM and 2.63 µM and 1.62 µM | 14.6 | 8.09 µM and 10.5 µM and 25.3 µM | 17.1 | 9.71 µM and 24.4 µM and 23.9 µM | C=CC(=O)Nc1ccc2[nH]c(=O)n(C3CCN(Cc4ccc(-c5ncc(C(=O)Nc6ccccn6)cc5-c5ccccc5)cc4)CC3)c2c1 [compound 23] | 6.3 | 3.66 µM and 8.18 µM and 7.06 µM | 6.3 ± 1.92 |  | 0.72 | 0.13 | 0.128 µM and 0.117 µM and 0.144 µM | 0.13 ± 0.011 | -0.07 |  | -0.79 | 0.117 µM and 0.167 µM and 0.17 µM | > 30 | > 30 µM | IC50 (Akt2; [17]): 0.152 µM; IC50 (Akt2; [19]): 0.151 ± 0.025 µM; EC50 (parental Ba/F3 cells; Mus musculus, BaF3, CTG, parental BaF3 cell line, read-out: EC50 BaF3): > 30 µM; EC50 (parental Ba/F3 cells; [22]): > 30 µM
12.8 | 12.4 µM and 14.1 µM | > 30 | > 30 µM | 26.5 | 28.3 µM and 27 µM | C=CC(=O)Nc1ccc2[nH]c(=O)n(C3CCN(Cc4ccc(-c5ncc(C(=O)N6CCCC6)cc5-c5ccccc5)cc4)CC3)c2c1 [compound 8] | > 20 | > 20 µM | > 20 | > 30 | 0.37 | 4.57 | 4.34 µM and 4.53 µM and 4.82 µM | 4.57 ± 0.197 | 0.34 | 23.6 | -0.32 | 1.92 µM and 4.34 µM and 2.21 µM | 17.3 | 20.7 µM and > 30 µM | IC50 (Akt3; read-out: HTRF IC50 Akt3, individual determinations, single replicates): > 20 µM; EC50 (Ba/F3^myr-Akt2 cells; [5]): 11.8 µM; EC50 (Ba/F3^myr-Akt1 cells; [9]): > 30 µM; drop in affinity of the amide-linked version (7 vs. 8) (Akt2; Akt2, biochemical IC50): 5 fold; IC50 (Akt2; [19]): 2.07 ± 0.147 µM
1.34 | 1.97 µM and 0.931 µM and 1.12 µM | 1.12 | 0.987 µM and 1.22 µM | 5.73 | 5.57 µM | NC1(c2ccc(-c3nc4ccn5c(=O)[nH]nc5c4cc3-c3ccccc3)cc2)CCC1 [MK-2206, reference compound] |  |  |  | 1.16 |  |  |  |  |  | 5.9 |  |  | 6.96 | 5.09 µM and 9.92 µM | EC50 (parental Ba/F3 cells; [22]): 7.39 µM
